The results in this text go back to ChEMBL document CHEMBL4007467, “Effects of 6-paradol, an unsaturated ketone from gingers, on cytochrome P450-mediated drug metabolism” (Bioorg Med Chem Lett, 2017).

Structures are written as SMILES. Some results are limits rather than exact numbers.

Type in all cases: ADME
Data set [1] has as its target T1, CYP2B6 (Homo sapiens, UniProt P20813).
T1 sequence (P20813 whole entry): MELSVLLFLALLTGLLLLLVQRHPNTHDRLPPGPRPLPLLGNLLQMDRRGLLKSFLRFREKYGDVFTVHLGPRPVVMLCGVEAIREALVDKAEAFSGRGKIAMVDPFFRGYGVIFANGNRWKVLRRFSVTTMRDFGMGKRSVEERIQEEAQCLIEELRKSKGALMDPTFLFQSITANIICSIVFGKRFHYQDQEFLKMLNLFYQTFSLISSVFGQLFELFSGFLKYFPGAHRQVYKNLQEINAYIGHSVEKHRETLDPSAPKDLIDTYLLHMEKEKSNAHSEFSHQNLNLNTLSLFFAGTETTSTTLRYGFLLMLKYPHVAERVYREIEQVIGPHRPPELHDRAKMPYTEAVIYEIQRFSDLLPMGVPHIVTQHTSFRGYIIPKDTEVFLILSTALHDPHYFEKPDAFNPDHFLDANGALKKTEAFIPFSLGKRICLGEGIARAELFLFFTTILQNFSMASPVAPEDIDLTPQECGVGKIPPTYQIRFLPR
In words: Inhibition of CYP2B6 in human liver microsomes assessed as enzyme-mediated metabolite formation at 30 uM using bupropion as substrate preincubated for 20 mins followed by substrate addition measured after 30 mins in presence of NADPH by LC-MS/MS analysis relative to control. Set-up: scale not given: the % may be the effect or the level left. The conditions noted are these: probe bupropion, read-out: Activity.

In data set [2] the target is T2, CYP3A4 (Homo sapiens, UniProt P08684). In words: Inhibition of CYP3A4 in human liver microsomes assessed as enzyme-mediated metabolite formation at 0.1 uM using testosterone as substrate preincubated for 20 mins followed by substrate addition measured after 30 mins in presence of NADPH by LC-MS/MS analysis relative to control. More on the design: scale not given: the % may be the effect or the level left. The conditions noted are these: probe testosterone, read-out: Activity.
T2 sequence (P08684 whole entry): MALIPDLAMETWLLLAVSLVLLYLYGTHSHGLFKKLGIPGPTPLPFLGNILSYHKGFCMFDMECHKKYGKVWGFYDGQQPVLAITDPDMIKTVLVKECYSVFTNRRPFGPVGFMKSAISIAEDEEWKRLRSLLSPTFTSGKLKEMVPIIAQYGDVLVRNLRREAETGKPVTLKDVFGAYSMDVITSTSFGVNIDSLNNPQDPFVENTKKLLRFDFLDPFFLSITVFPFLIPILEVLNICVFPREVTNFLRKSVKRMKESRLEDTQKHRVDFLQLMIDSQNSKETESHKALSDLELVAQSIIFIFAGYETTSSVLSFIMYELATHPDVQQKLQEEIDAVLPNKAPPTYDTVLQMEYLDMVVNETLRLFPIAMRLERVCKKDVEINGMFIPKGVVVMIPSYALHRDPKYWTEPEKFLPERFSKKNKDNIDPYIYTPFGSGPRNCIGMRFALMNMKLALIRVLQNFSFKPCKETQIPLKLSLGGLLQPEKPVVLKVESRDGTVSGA

The next data set addresses T3, Cytochrome P450 1A2 (Homo sapiens, UniProt P05177).
T3 sequence (P05177 whole entry): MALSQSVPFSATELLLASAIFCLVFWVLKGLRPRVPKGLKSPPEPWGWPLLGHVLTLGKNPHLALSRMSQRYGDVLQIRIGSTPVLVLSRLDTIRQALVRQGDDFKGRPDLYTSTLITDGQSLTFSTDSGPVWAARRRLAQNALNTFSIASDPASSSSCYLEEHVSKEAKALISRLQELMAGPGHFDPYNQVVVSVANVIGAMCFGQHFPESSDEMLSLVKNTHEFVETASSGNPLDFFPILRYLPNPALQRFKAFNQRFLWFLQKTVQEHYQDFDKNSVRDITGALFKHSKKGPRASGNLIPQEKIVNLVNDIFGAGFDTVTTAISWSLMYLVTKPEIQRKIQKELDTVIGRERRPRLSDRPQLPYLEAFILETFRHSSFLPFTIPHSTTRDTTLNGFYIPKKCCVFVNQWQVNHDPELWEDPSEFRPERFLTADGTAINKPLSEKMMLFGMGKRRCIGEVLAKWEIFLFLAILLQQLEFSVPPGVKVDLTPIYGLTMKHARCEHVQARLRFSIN
In words: Inhibition of human CYP1A2 using phenacetin as substrate incubated for 5 mins followed by NADPH addition measured after 30 mins by LC-MS/MS analysis.

Data set [3] deals with T2, CYP3A4. In words: Inhibition of CYP3A4 in human liver microsomes assessed as enzyme-mediated metabolite formation at 0.1 uM using midazolam as substrate preincubated for 20 mins followed by substrate addition measured after 30 mins in presence of NADPH by LC-MS/MS analysis relative to control. Set-up: scale not given: the % may be the effect or the level left. Conditions: probe midazolam, read-out: Activity. On the technique in general: Liver microsomes are vesicles of endoplasmic reticulum, rich in cytochrome P450 enzymes.

The target in data set [4] is T2, CYP3A4. In words: Inhibition of CYP3A4 in human liver microsomes assessed as enzyme-mediated metabolite formation at 0.3 uM using testosterone as substrate incubated for 5 mins followed by NADPH addition measured after 30 mins by LC-MS/MS analysis relative to control. More on the design: scale not given: the % may be the effect or the level left. The conditions noted are these: probe testosterone, read-out: Activity.

Data set [5] deals with T4, CYP2C19 (Homo sapiens, UniProt P33261). Nature of the data set: Inhibition of CYP2C19 in human liver microsomes assessed as enzyme-mediated metabolite formation at 10 uM using (S)-mephenytoin as substrate preincubated for 20 mins followed by substrate addition measured after 30 mins in presence of NADPH by LC-MS/MS analysis relative to control. More on the design: scale not given: the % may be the effect or the level left. The conditions noted are these: probe (S)-mephenytoin, read-out: Activity.
T4 sequence (P33261 whole entry): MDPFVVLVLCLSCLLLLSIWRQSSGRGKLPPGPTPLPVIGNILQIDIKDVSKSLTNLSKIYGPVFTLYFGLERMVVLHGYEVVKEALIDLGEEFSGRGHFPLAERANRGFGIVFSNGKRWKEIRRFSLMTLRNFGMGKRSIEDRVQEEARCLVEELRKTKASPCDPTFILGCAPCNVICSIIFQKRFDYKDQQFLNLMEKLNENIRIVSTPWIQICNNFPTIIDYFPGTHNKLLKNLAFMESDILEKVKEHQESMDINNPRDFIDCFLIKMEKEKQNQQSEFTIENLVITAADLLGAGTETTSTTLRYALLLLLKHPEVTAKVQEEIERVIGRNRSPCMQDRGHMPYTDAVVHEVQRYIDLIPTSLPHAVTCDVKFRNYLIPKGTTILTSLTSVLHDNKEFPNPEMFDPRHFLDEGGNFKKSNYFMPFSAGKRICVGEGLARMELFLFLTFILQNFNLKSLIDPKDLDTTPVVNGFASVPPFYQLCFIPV

The target of a further data set is T5, CYP1A2 (Homo sapiens, UniProt P05177).
T5 sequence (P05177 whole entry): T3 sequence (P05177 whole entry)
Nature of the data set: Inhibition of CYP1A2 in human liver microsomes assessed as enzyme-mediated metabolite formation at 0.3 uM using phenacetin as substrate preincubated for 20 mins followed by substrate addition measured after 30 mins in presence of NADPH by LC-MS/MS analysis relative to control. Set-up: scale not given: the % may be the effect or the level left. Conditions: probe phenacetin, read-out: Activity.

Data set [6] addresses T4, CYP2C19. In words: Inhibition of CYP2C19 in human liver microsomes assessed as enzyme-mediated metabolite formation at 3 uM using (S)-mephenytoin as substrate incubated for 5 mins followed by NADPH addition measured after 30 mins by LC-MS/MS analysis relative to control. The conditions noted are these: probe (S)-mephenytoin, read-out: Activity. Set-up: scale not given: the % may be the effect or the level left.

Data set [7] concerns the target T6, Cytochrome P450 3A4 (Homo sapiens, UniProt P08684). Nature of the data set: Inhibition of CYP3A4 in human liver microsomes using midazolam as substrate preincubated for 20 mins followed by substrate addition measured after 30 mins in presence of NADPH by LC-MS/MS analysis.
The target of data set [8] is T2, CYP3A4. Nature of the data set: Inhibition of CYP3A4 in human liver microsomes assessed as enzyme-mediated metabolite formation at 1 uM using testosterone as substrate incubated for 5 mins followed by NADPH addition measured after 30 mins by LC-MS/MS analysis relative to control. Set-up: scale not given: the % may be the effect or the level left. The conditions noted are these: probe testosterone, read-out: Activity.

The target of a further data set is Cytochrome P450 2C19 (Homo sapiens, UniProt P33261). In words: Inhibition of CYP2C19 in human liver microsomes assessed as enzyme-mediated metabolite formation using (S)-mephenytoin as substrate incubated for 5 mins followed by NADPH addition measured after 30 mins by LC-MS/MS analysis.
Cytochrome P450 2C19, sequence (P33261 whole entry): as above
Data set [9] concerns the target T2, CYP3A4. Nature of the data set: Inhibition of CYP3A4 in human liver microsomes assessed as enzyme-mediated metabolite formation at 3 uM using testosterone as substrate incubated for 5 mins followed by NADPH addition measured after 30 mins by LC-MS/MS analysis relative to control. Set-up: scale not given: the % may be the effect or the level left. The conditions noted are these: probe testosterone, read-out: Activity.

For data set [10], the target named is T1, CYP2B6. Nature of the data set: Inhibition of CYP2B6 in human liver microsomes assessed as enzyme-mediated metabolite formation at 1 uM using bupropion as substrate preincubated for 20 mins followed by substrate addition measured after 30 mins in presence of NADPH by LC-MS/MS analysis relative to control. Set-up: scale not given: the % may be the effect or the level left. The conditions noted are these: probe bupropion, read-out: Activity.

Data set [11] addresses T4, CYP2C19. In words: Inhibition of CYP2C19 in human liver microsomes assessed as enzyme-mediated metabolite formation at 1 uM using (S)-mephenytoin as substrate incubated for 5 mins followed by NADPH addition measured after 30 mins by LC-MS/MS analysis relative to control. More on the design: scale not given: the % may be the effect or the level left. The conditions noted are these: probe (S)-mephenytoin, read-out: Activity.

The target of data set [12] is T2, CYP3A4. In words: Inhibition of CYP3A4 in human liver microsomes assessed as enzyme-mediated metabolite formation at 10 uM using midazolam as substrate incubated for 5 mins followed by NADPH addition measured after 30 mins by LC-MS/MS analysis relative to control. Set-up: scale not given: the % may be the effect or the level left. Conditions: probe midazolam, read-out: Activity.

In data set [13] the target is T6, Cytochrome P450 3A4. In words: Inhibition of CYP3A4 in human liver microsomes assessed as enzyme-mediated metabolite formation using midazolam as substrate incubated for 5 mins followed by NADPH addition measured after 30 mins by LC-MS/MS analysis.
The target of a further data set is T7, Cytochrome P450 2B6 (Homo sapiens, UniProt P20813).
T7 sequence (P20813 whole entry): T1 sequence (P20813 whole entry)
In words: Inhibition of human CYP2B6 using bupropion as substrate incubated for 5 mins followed by NADPH addition measured after 30 mins by LC-MS/MS analysis.

For orientation: IC50 means the concentration that inhibits the measured activity by half.

T6 sequence (P08684 whole entry): as the sequence (P08684 whole entry) above

With `CCCCCCCC(=O)CCc1ccc(O)c(OC)c1`, on CYP2B6 [1], the activity at 0.5 h, 30 µM stood at 45.5%. Also, the activity at 0.5 h, 0.1 µM at CYP3A4 [2] worked out at 93.4%; on CYP3A4 [3], 96.3%. Also, the IC50 is 21.4 µM against Cytochrome P450 1A2; over 30 µM on Cytochrome P450 3A4 [7]; 17.6 µM at Cytochrome P450 2C19; over 30 µM on Cytochrome P450 3A4 [13]; 6.2 µM against Cytochrome P450 2B6. The “inhibition (INH)” value on Cytochrome P450 1A2 (human, 0.5 h) was “Dose-dependent effect”; at Cytochrome P450 2B6 (human, 0.5 h) it was “Dose-dependent effect”. Also, the activity at 0.5 h, 0.3 µM on CYP3A4 [4] was determined as 75.2%; at CYP1A2, 96.4%. For the same molecule, the activity at 0.5 h, 10 µM at CYP2C19 [5] was 44.5%; at CYP3A4 [12], 71%. The results for the activity at 0.5 h, 3 µM at CYP2C19 [6] and on CYP3A4 [9] were 78.6% and 63.3%, respectively. For the same molecule, the activity at 0.5 h, 1 µM on CYP3A4 [8] was determined as 65.6%; at CYP2B6 [10], 79%; at CYP2C19 [11], 88.4%.
